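A five-concentration, 48-hour dose response in 96-well plates underlies each endpoint, interpolated linearly between surrounding concentrations. GI50 is the concentration that inhibits growth by half.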 The source made the active and inactive calls. Rule as the data show it: active = GI50 up to about 1.1 µM and inactive = higher.
Experiments:
Test in all cases: NCI anticancer screen, dose series, 48 h
[1] = system: DU-145
[2] = system: NCI/ADR-RES
[3] = system: Malme-3M
[4] = system: HCC 2998
[5] = system: SN12C
[6] = system: ACHN
[7] = system: K562
[8] = system: HOP-92
[9] = system: RXF 393
[10] = system: SF-539
[11] = system: HCT-116
[12] = system: SK-MEL-28
[13] = system: MDA-MB-231
[14] = system: M14
[15] = system: BT-549
[16] = system: OVCAR-8
[17] = system: CAKI-1
[18] = system: Hs-578T
[19] = system: CCRF-CEM
[20] = system: NCI-H226

Row | SMILES | GI50 [1] | GI50 [2] | GI50 [3] | GI50 [4] | GI50 [5] | GI50 [6] | GI50 [7] | GI50 [8] | GI50 [9] | GI50 [10] | GI50 [11] | GI50 [12] | GI50 [13] | GI50 [14] | GI50 [15] | GI50 [16] | GI50 [17] | GI50 [18] | GI50 [19] | GI50 [20]
1 | Nc1ncn(C/C=C/c2ccccc2)c2ncnc1-2 | > 100 µM (inactive) | > 100 µM (inactive) | > 100 µM (inactive) | > 100 µM (inactive) | > 100 µM (inactive) | > 100 µM (inactive) | 8.93 µM (inactive) | > 100 µM (inactive) | > 100 µM (inactive) | > 100 µM (inactive) | > 100 µM (inactive) | > 100 µM (inactive) | > 100 µM (inactive) | > 100 µM (inactive) | > 100 µM (inactive) | > 100 µM (inactive) | > 100 µM (inactive) | > 100 µM (inactive) | – | –
2 | Oc1cc(-c2cccc(F)c2)nc2cc3c(cc12)OCO3 | 0.0524 µM (active) | 0.0199 µM (active) | 0.0454 µM (active) | 0.0705 µM (active) | 0.129 µM (active) | 0.119 µM (active) | 0.0653 µM (active) | 0.272 µM (active) | 0.0546 µM (active) | 0.0573 µM (active) | 0.0405 µM (active) | 0.0439 µM (active) | 0.141 µM (active) | 0.0402 µM (active) | 0.2 µM (active) | 0.0347 µM (active) | 0.0513 µM (active) | 0.0226 µM (active) | 0.0507 µM (active) | –
3 | O=C1Nc2ccccc2C(=O)/C1=C/NC(=S)NC1CCCCC1 | > 100 µM (inactive) | > 100 µM (inactive) | – | > 100 µM (inactive) | > 100 µM (inactive) | > 100 µM (inactive) | > 100 µM (inactive) | > 100 µM (inactive) | > 100 µM (inactive) | > 100 µM (inactive) | > 100 µM (inactive) | – | > 100 µM (inactive) | > 100 µM (inactive) | > 100 µM (inactive) | > 100 µM (inactive) | > 100 µM (inactive) | > 100 µM (inactive) | > 100 µM (inactive) | > 100 µM (inactive)
4 | [N-]=[N+]=Nc1nc2ccccc2c(N=[N+]=[N-])c1Cl | > 100 µM (inactive) | > 100 µM (inactive) | > 100 µM (inactive) | > 100 µM (inactive) | > 100 µM (inactive) | > 100 µM (inactive) | > 100 µM (inactive) | 30.3 µM (inactive) | 25.6 µM (inactive) | 96.8 µM (inactive) | > 100 µM (inactive) | > 100 µM (inactive) | > 100 µM (inactive) | > 100 µM (inactive) | 28.6 µM (inactive) | – | > 100 µM (inactive) | 31.6 µM (inactive) | > 100 µM (inactive) | –
5 | COC1=CC(=O)c2c(cc(COP(=O)(N(C)CCBr)N(C)CCBr)n2C)C1=O | < 0.0235 µM (active) | 1.24 µM (inactive) | 0.906 µM (active) | 0.494 µM (active) | < 0.0272 µM (active) | < 0.0108 µM (active) | 1.52 µM (inactive) | 0.69 µM (active) | 0.229 µM (active) | < 0.0178 µM (active) | 0.0542 µM (active) | 1.59 µM (inactive) | 3.91 µM (inactive) | 0.614 µM (active) | 1.38 µM (inactive) | 0.241 µM (active) | < 0.0182 µM (active) | 1.77 µM (inactive) | 0.0356 µM (active) | –
6 | O=P(O)(O)c1ccccc1Oc1ccccc1 | > 100 µM (inactive) | > 100 µM (inactive) | – | > 100 µM (inactive) | > 100 µM (inactive) | > 100 µM (inactive) | > 100 µM (inactive) | > 100 µM (inactive) | > 100 µM (inactive) | > 100 µM (inactive) | > 100 µM (inactive) | > 100 µM (inactive) | > 100 µM (inactive) | > 100 µM (inactive) | > 100 µM (inactive) | > 100 µM (inactive) | > 100 µM (inactive) | > 100 µM (inactive) | > 100 µM (inactive) | > 100 µM (inactive)
7 | CCCNC(=O)N1CC(CN2CCN(c3ccccc3)CC2)O/C1=N/C(=O)Nc1ccccc1 (stereo not given) | 57.9 µM (inactive) | 50.6 µM (inactive) | 97.1 µM (inactive) | > 100 µM (inactive) | > 100 µM (inactive) | > 100 µM (inactive) | > 100 µM (inactive) | 89.3 µM (inactive) | 43.3 µM (inactive) | – | > 100 µM (inactive) | > 100 µM (inactive) | > 100 µM (inactive) | 65.9 µM (inactive) | > 100 µM (inactive) | – | > 100 µM (inactive) | > 100 µM (inactive) | – | 2.09 µM (inactive)
8 | C=CCN1CCC(OC(=O)C(O)(C#CC)C2CCCC2)CC1 (stereo not given) | > 100 µM (inactive) | > 100 µM (inactive) | > 100 µM (inactive) | > 100 µM (inactive) | > 100 µM (inactive) | > 100 µM (inactive) | – | > 100 µM (inactive) | > 100 µM (inactive) | > 100 µM (inactive) | > 100 µM (inactive) | > 100 µM (inactive) | > 100 µM (inactive) | > 100 µM (inactive) | > 100 µM (inactive) | > 100 µM (inactive) | > 100 µM (inactive) | > 100 µM (inactive) | – | > 100 µM (inactive)
9 | CNCC(SC)c1ccc(O)c(O)c1 (stereo not given) | 17.9 µM (inactive) | 34.9 µM (inactive) | 17.5 µM (inactive) | 16.7 µM (inactive) | 21.5 µM (inactive) | 17.7 µM (inactive) | 23.7 µM (inactive) | 20.4 µM (inactive) | 33.6 µM (inactive) | – | 20.7 µM (inactive) | 53.2 µM (inactive) | 28.2 µM (inactive) | 52.8 µM (inactive) | 16.6 µM (inactive) | 19.2 µM (inactive) | 20.5 µM (inactive) | 66.1 µM (inactive) | 2.67 µM (inactive) | > 100 µM (inactive)
10 | CC(=O)C1=C(C)N(c2ccc(C)cc2)C2(O)C3=C(C(=O)c4ccccc4C3=O)C(O)=CC12Cl (stereo not given) | 24.7 µM (inactive) | 5.65 µM (inactive) | 10.5 µM (inactive) | 12.7 µM (inactive) | 17 µM (inactive) | 15.4 µM (inactive) | 7.43 µM (inactive) | 43.8 µM (inactive) | 9.73 µM (inactive) | 12.2 µM (inactive) | 30.8 µM (inactive) | 10.2 µM (inactive) | 31.8 µM (inactive) | 40.7 µM (inactive) | 15 µM (inactive) | 14.1 µM (inactive) | 10.4 µM (inactive) | 6.28 µM (inactive) | – | 43 µM (inactive)
11 | Fc1ccccc1C1SCC2=Nc3ccccc3CN21 (stereo not given) | > 100 µM (inactive) | > 100 µM (inactive) | – | > 100 µM (inactive) | > 100 µM (inactive) | > 100 µM (inactive) | > 100 µM (inactive) | > 100 µM (inactive) | > 100 µM (inactive) | 94.8 µM (inactive) | 48.5 µM (inactive) | > 100 µM (inactive) | > 100 µM (inactive) | > 100 µM (inactive) | > 100 µM (inactive) | > 100 µM (inactive) | > 100 µM (inactive) | > 100 µM (inactive) | > 100 µM (inactive) | –
12 | Cc1nc(N)sc1C(=O)Nc1nc[nH]n1 | > 100 µM (inactive) | > 100 µM (inactive) | – | > 100 µM (inactive) | > 100 µM (inactive) | > 100 µM (inactive) | > 100 µM (inactive) | > 100 µM (inactive) | > 100 µM (inactive) | > 100 µM (inactive) | > 100 µM (inactive) | > 100 µM (inactive) | > 100 µM (inactive) | > 100 µM (inactive) | > 100 µM (inactive) | > 100 µM (inactive) | > 100 µM (inactive) | > 100 µM (inactive) | – | > 100 µM (inactive)
13 | CCOC(=O)N(C)CCC1CC=CC(=O)C1c1cccc(OC)c1OC (stereo not given) | 12.1 µM (inactive) | 19.8 µM (inactive) | 22.9 µM (inactive) | 13.1 µM (inactive) | 17.3 µM (inactive) | 34 µM (inactive) | 23.2 µM (inactive) | 65.3 µM (inactive) | 10.5 µM (inactive) | 9.91 µM (inactive) | 14.4 µM (inactive) | – | 26.1 µM (inactive) | 19.5 µM (inactive) | 15 µM (inactive) | 21.3 µM (inactive) | 20.9 µM (inactive) | 71.4 µM (inactive) | 10.6 µM (inactive) | –
14 | COc1cc(OCc2ccccc2)c2c(CCC(=O)O)cc(=O)oc2c1.COc1cc(OCc2ccccc2)cc2oc(=O)cc(CCC(=O)O)c12 | 64.6 µM (inactive) | 52.7 µM (inactive) | > 100 µM (inactive) | 56.5 µM (inactive) | – | 37.5 µM (inactive) | 49 µM (inactive) | 32 µM (inactive) | – | 71.6 µM (inactive) | 54 µM (inactive) | 42.3 µM (inactive) | 29.1 µM (inactive) | 92.5 µM (inactive) | 57.5 µM (inactive) | 37 µM (inactive) | 28.6 µM (inactive) | 50.6 µM (inactive) | 36.7 µM (inactive) | 87.3 µM (inactive)
15 | CC(Oc1ccc(Cl)cc1Cl)C(=O)NN1C(=O)CC(=O)N(c2ccccc2)C1=S (stereo not given) | 53.3 µM (inactive) | 39.9 µM (inactive) | > 100 µM (inactive) | 63.4 µM (inactive) | 52.4 µM (inactive) | 48.1 µM (inactive) | 41.7 µM (inactive) | 24.9 µM (inactive) | 41 µM (inactive) | > 100 µM (inactive) | 35.5 µM (inactive) | 98.6 µM (inactive) | 65.9 µM (inactive) | 73.3 µM (inactive) | 59.6 µM (inactive) | 50.2 µM (inactive) | 53.6 µM (inactive) | > 100 µM (inactive) | – | 37.8 µM (inactive)

Reference: ChEMBL document CHEMBL1201862, “PubChem BioAssay data set” (2004)
